Experimental data from ChEMBL document CHEMBL1201862, “PubChem BioAssay data set” (2004).
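Results reflect a 48-hour exposure of cells in 96-well plates to compound at five concentrations. At the GI50, growth is halved.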 Active and inactive are the calls of the source. Cut-off read from the data, not from the text of the source: active = GI50 up to about 1.1 µM and inactive = higher.

What was measured:
Experiment in all cases: DTP human tumour cell line panel, 48 h
[1] = system: 786-0
[2] = system: A498
[3] = system: BT-549
[4] = system: COLO 205
[5] = system: HCT-116
[6] = system: HOP-92
[7] = system: M14
[8] = system: MCF7
[9] = system: Malme-3M
[10] = system: NCI-H522
[11] = system: OVCAR-8
[12] = system: RXF 393
[13] = system: SF-295
[14] = system: SK-OV-3
[15] = system: SNB-19
[16] = system: SNB-75
[17] = system: SW-620
[18] = system: TK-10
[19] = system: UACC-62
[20] = system: MOLT-4

Structure (SMILES)	GI50 [1]	GI50 [2]	GI50 [3]	GI50 [4]	GI50 [5]	GI50 [6]	GI50 [7]	GI50 [8]	GI50 [9]	GI50 [10]	GI50 [11]	GI50 [12]	GI50 [13]	GI50 [14]	GI50 [15]	GI50 [16]	GI50 [17]	GI50 [18]	GI50 [19]	GI50 [20]
CCc1cn2c(/C=N/N=C(N)N)c(-c3cc(C)c(Cl)cc3Cl)nc2s1	0.847 µM (active)	1.77 µM (inactive)	1.64 µM (inactive)	1.64 µM (inactive)	0.785 µM (active)	1.64 µM (inactive)	1.65 µM (inactive)	1.71 µM (inactive)	1.37 µM (inactive)	1.87 µM (inactive)	1.58 µM (inactive)	1.74 µM (inactive)	0.7 µM (active)	1.7 µM (inactive)	1.54 µM (inactive)	1.55 µM (inactive)	1.64 µM (inactive)	1.97 µM (inactive)	1.42 µM (inactive)	
CN(C)CCNC(=O)c1cccc2nc3c(C(=O)NCCN(C)C)cccc3nc12	0.393 µM (active)	1.85 µM (inactive)	3.18 µM (inactive)	0.612 µM (active)	0.603 µM (active)	2.9 µM (inactive)	1.51 µM (inactive)	0.706 µM (active)	1.77 µM (inactive)	0.458 µM (active)	0.421 µM (active)	1.44 µM (inactive)	1.31 µM (inactive)		1.11 µM (active)	2.63 µM (inactive)	0.462 µM (active)	1.86 µM (inactive)	2.9 µM (inactive)	0.43 µM (active)
SC1CCCN(Cc2ccccc2)C1 (configuration not stated)	35.7 µM (inactive)	65.2 µM (inactive)	> 100 µM (inactive)	17.9 µM (inactive)	61.1 µM (inactive)	60 µM (inactive)	20 µM (inactive)	20.8 µM (inactive)		35.7 µM (inactive)	46.1 µM (inactive)	> 100 µM (inactive)	61.1 µM (inactive)	> 100 µM (inactive)	> 100 µM (inactive)	> 100 µM (inactive)	28.2 µM (inactive)	69.7 µM (inactive)	44.8 µM (inactive)	26.5 µM (inactive)
